“And” between values parts separate entries of the source, which are not always exact repeats. Equal values may be shown once.
Tested on: sarcosine oxidase (BBI Solutions)
Assay: BBI Solutions Sarcosine Oxidase Enzyme Absorbance with BSA and MIT
Format: biochemical
Conditions: for Sarcosine Oxidase Enzyme Absorbance, MEAN of 7-11 / Sarcosine Oxidase Enzyme Absorbance, replicates 7-11 / Sarcosine Oxidase Enzyme Absorbance, MEAN of 1-5 / Sarcosine Oxidase Enzyme Absorbance, solutions 1-5: 37° C.
[1] = Day 0, 5 mg/mL BSA only, no MIT (50 ppm MIT row)
[2] = Day 0, 5 mg/mL BSA only, no MIT (100 ppm MIT row)
[3] = Day 0, 25 mg/mL BSA only, no MIT (50 ppm MIT row)
[4] = Day 0, 25 mg/mL BSA only, no MIT (100 ppm MIT row)
[5] = Day 0, 50 mg/mL BSA only, no MIT (50 ppm MIT row)
[6] = Day 0, 50 ppm MIT, 25 mg/mL BSA
[7] = Day 0, 50 ppm MIT, 50 mg/mL BSA
[8] = Day 0, 100 ppm MIT, 5 mg/mL BSA
[9] = Day 0, 100 ppm MIT, 25 mg/mL BSA
[10] = Day 0, 100 ppm MIT, 50 mg/mL BSA
[11] = Day 4, 50 ppm MIT, 25 mg/mL BSA
[12] = Day 4, 50 ppm MIT, 50 mg/mL BSA
[13] = Day 4, 100 ppm MIT, 5 mg/mL BSA
[14] = Day 4, 100 ppm MIT, 25 mg/mL BSA
[15] = Day 4, 100 ppm MIT, 50 mg/mL BSA
[16] = Day 14, 50 ppm MIT, 5 mg/mL BSA
[17] = Day 14, 50 ppm MIT, 25 mg/mL BSA
[18] = Day 14, 50 ppm MIT, 50 mg/mL BSA

Method: Tables 1-4 depict aqueous solutions comprising varying concentrations of BSA (at concentrations of 0 mg/mL, 5 mg/mL, 25 mg/mL, and 50 mg/mL), varying concentrations of MIT (at concentrations of 50 parts per million and 100 parts per million) or Proclin™ 300 (at concentrations of 0.7% and 1.4%) biocides over a particular time period (measurements were taken at days 0, 4, and 14 after exposure of the enzyme(s) to the aqueous solutions) and the associated enzyme absorbance measurements for sarcosine oxidase (commercially offered for sale by BBI Solutions and Toyobo). Absorbance measurements of the sarcosine oxidase enzyme(s) were taken via spectrophotometer for each aqueous solution (represented as columns 1-5 in Tables 1-4—column 6 is a blank), the absorbance being directly proportional to the enzyme activity being measured-which for Tables 1-4 is sarcosine oxidase enzyme activity. Accordingly, the higher the absorbance measurement, the higher the enzyme activity of sarcosine oxidase. Columns 7-11 represent five replicate readings in which the aqueous solution only contains BSA (i.e., there is no biocide(s) present in the aqueous solution). In addition, the mean values, standard deviations, and coefficients of variation are also presented for the enzyme activity/absorbance of each aqueous solution. All measurements were taken at 37° C.
As depicted below in Table 1, sarcosine oxidase (commercially offered for sale by BBI Solutions) enzyme activity is measured against various concentrations of MIT (biocide) and BSA (scavenger protein) over a period of 14 days (with absorbance measurements taken at 0, 4, and 14 days) for five different aqueous solutions (represented as columns 1-5—column 6 is a blank).

Question: Which “Sarcosine Oxidase Enzyme Absorbance, MEAN of 7-11” value [1] does the source give for bovine serum albumin [BSA] here?
Answer: 1.39

Question: What about the “Sarcosine Oxidase Enzyme Absorbance, replicates 7-11” value [1] of the same substance?
Answer: 1.428

Question: And the “Sarcosine Oxidase Enzyme Absorbance, MEAN of 7-11” value [2]?
Answer: 1.38

Question: And the “Sarcosine Oxidase Enzyme Absorbance, replicates 7-11” value [2]?
Answer: 1.439 and 1.414 and 1.437 and 1.422

Question: And the “Sarcosine Oxidase Enzyme Absorbance, MEAN of 7-11” value [3]?
Answer: 1.37

Question: What about the “Sarcosine Oxidase Enzyme Absorbance, replicates 7-11” value [3] of the same substance?
Answer: 1.434

Question: And the “Sarcosine Oxidase Enzyme Absorbance, MEAN of 7-11” value [4]?
Answer: 1.39

Question: And the “Sarcosine Oxidase Enzyme Absorbance, replicates 7-11” value [4]?
Answer: 1.43 and 1.428 and 1.409 and 1.458

Question: What about the “Sarcosine Oxidase Enzyme Absorbance, MEAN of 7-11” value [5] of the same substance?
Answer: 1.41

Question: What about the “Sarcosine Oxidase Enzyme Absorbance, replicates 7-11” value [5] of the same substance?
Answer: 1.454

Question: What about the “Sarcosine Oxidase Enzyme Absorbance, MEAN of 7-11” value (Day 0, 50 mg/mL BSA only, no MIT (100 ppm MIT row)) of the same substance?
Answer: 1.35

Question: What about the “% Bias” value (Day 0, 50 ppm MIT vs no MIT, 5 mg/mL BSA) of the same substance?
Answer: 2.3%

Question: And the “% Bias” value (Day 0, 50 ppm MIT vs no MIT, 25 mg/mL BSA)?
Answer: −0.5%

Question: And the “% Bias” value (Day 0, 50 ppm MIT vs no MIT, 50 mg/mL BSA)?
Answer: −0.1%

Question: What about the “Sarcosine Oxidase Enzyme Absorbance, MEAN of 1-5” value (Day 0, 50 ppm MIT, 5 mg/mL BSA) of the same substance?
Answer: 1.42

Question: What about the “Sarcosine Oxidase Enzyme Absorbance, solutions 1-5” value (Day 0, 50 ppm MIT, 5 mg/mL BSA) of the same substance?
Answer: 1.484 and 1.435 and 1.486 and 1.455 and 1.454

Question: And the “Sarcosine Oxidase Enzyme Absorbance, MEAN of 1-5” value [6]?
Answer: 1.37

Question: What about the “Sarcosine Oxidase Enzyme Absorbance, solutions 1-5” value [6] of the same substance?
Answer: 1.385 and 1.39 and 1.401 and 1.423 and 1.433

Question: And the “Sarcosine Oxidase Enzyme Absorbance, MEAN of 1-5” value [7]?
Answer: 1.41

Question: And the “Sarcosine Oxidase Enzyme Absorbance, solutions 1-5” value [7]?
Answer: 1.445 and 1.468 and 1.458 and 1.406 and 1.484

Question: What about the “% Bias” value (Day 0, 100 ppm MIT vs no MIT, 5 mg/mL BSA) of the same substance?
Answer: −0.3%

Question: And the “% Bias” value (Day 0, 100 ppm MIT vs no MIT, 25 mg/mL BSA)?
Answer: 2.0%

Question: What about the “% Bias” value (Day 0, 100 ppm MIT vs no MIT, 50 mg/mL BSA) of the same substance?
Answer: 1.9%

Question: What about the “Sarcosine Oxidase Enzyme Absorbance, MEAN of 1-5” value [8] of the same substance?
Answer: 1.38

Question: And the “Sarcosine Oxidase Enzyme Absorbance, solutions 1-5” value [8]?
Answer: 1.41 and 1.418 and 1.423 and 1.42 and 1.425

Question: And the “Sarcosine Oxidase Enzyme Absorbance, MEAN of 1-5” value [9]?
Answer: 1.41

Question: What about the “Sarcosine Oxidase Enzyme Absorbance, solutions 1-5” value [9] of the same substance?
Answer: 1.447 and 1.459 and 1.456 and 1.449 and 1.468

Question: And the “Sarcosine Oxidase Enzyme Absorbance, MEAN of 1-5” value [10]?
Answer: 1.38

Question: And the “Sarcosine Oxidase Enzyme Absorbance, solutions 1-5” value [10]?
Answer: 1.396 and 1.419 and 1.45 and 1.414 and 1.413

Question: What about the “Sarcosine Oxidase Enzyme Absorbance, MEAN of 7-11” value (Day 4, 5 mg/mL BSA only, no MIT (50 ppm MIT row)) of the same substance?
Answer: 1.41

Question: And the “Sarcosine Oxidase Enzyme Absorbance, MEAN of 7-11” value (Day 4, 5 mg/mL BSA only, no MIT (100 ppm MIT row))?
Answer: 1.36

Question: What about the “Sarcosine Oxidase Enzyme Absorbance, MEAN of 7-11” value (Day 4, 25 mg/mL BSA only, no MIT (50 ppm MIT row)) of the same substance?
Answer: 1.37

Question: What about the “Sarcosine Oxidase Enzyme Absorbance, MEAN of 7-11” value (Day 4, 25 mg/mL BSA only, no MIT (100 ppm MIT row)) of the same substance?
Answer: 1.36

Question: What about the “Sarcosine Oxidase Enzyme Absorbance, MEAN of 7-11” value (Day 4, 50 mg/mL BSA only, no MIT (50 ppm MIT row)) of the same substance?
Answer: 1.47

Question: What about the “Sarcosine Oxidase Enzyme Absorbance, MEAN of 7-11” value (Day 4, 50 mg/mL BSA only, no MIT (100 ppm MIT row)) of the same substance?
Answer: 1.36

Question: And the “% Bias” value (Day 4, 50 ppm MIT vs no MIT, 5 mg/mL BSA)?
Answer: 1.4%

Question: What about the “% Bias” value (Day 4, 50 ppm MIT vs no MIT, 25 mg/mL BSA) of the same substance?
Answer: 3.0%

Question: And the “% Bias” value (Day 4, 50 ppm MIT vs no MIT, 50 mg/mL BSA)?
Answer: −7.2%

Question: And the “Sarcosine Oxidase Enzyme Absorbance, MEAN of 1-5” value (Day 4, 50 ppm MIT, 5 mg/mL BSA)?
Answer: 1.43

Question: And the “Sarcosine Oxidase Enzyme Absorbance, solutions 1-5” value (Day 4, 50 ppm MIT, 5 mg/mL BSA)?
Answer: 1.47 and 1.446 and 1.456 and 1.467

Question: What about the “Sarcosine Oxidase Enzyme Absorbance, MEAN of 1-5” value [11] of the same substance?
Answer: 1.41

Question: And the “Sarcosine Oxidase Enzyme Absorbance, solutions 1-5” value [11]?
Answer: 1.446 and 1.431 and 1.432 and 1.448 and 1.434

Question: And the “Sarcosine Oxidase Enzyme Absorbance, MEAN of 1-5” value [12]?
Answer: 1.37

Question: And the “Sarcosine Oxidase Enzyme Absorbance, solutions 1-5” value [12]?
Answer: 1.429 and 1.415 and 1.37 and 1.398 and 1.381

Question: What about the “% Bias” value (Day 4, 100 ppm MIT vs no MIT, 5 mg/mL BSA) of the same substance?
Answer: 1.5%

Question: What about the “% Bias” value (Day 4, 100 ppm MIT vs no MIT, 25 mg/mL BSA) of the same substance?
Answer: 1.0%

Question: What about the “% Bias” value (Day 4, 100 ppm MIT vs no MIT, 50 mg/mL BSA) of the same substance?
Answer: 1.0%

Question: And the “Sarcosine Oxidase Enzyme Absorbance, MEAN of 1-5” value [13]?
Answer: 1.38

Question: And the “Sarcosine Oxidase Enzyme Absorbance, solutions 1-5” value [13]?
Answer: 1.404 and 1.416 and 1.435 and 1.42

Question: What about the “Sarcosine Oxidase Enzyme Absorbance, MEAN of 1-5” value [14] of the same substance?
Answer: 1.37

Question: And the “Sarcosine Oxidase Enzyme Absorbance, solutions 1-5” value [14]?
Answer: 1.42 and 1.392 and 1.415 and 1.383 and 1.4

Question: And the “Sarcosine Oxidase Enzyme Absorbance, MEAN of 1-5” value [15]?
Answer: 1.38

Question: What about the “Sarcosine Oxidase Enzyme Absorbance, solutions 1-5” value [15] of the same substance?
Answer: 1.397 and 1.396 and 1.413 and 1.425 and 1.412

Question: And the “Sarcosine Oxidase Enzyme Absorbance, MEAN of 7-11” value (Day 14, 5 mg/mL BSA only, no MIT (50 ppm MIT row))?
Answer: 1.39

Question: What about the “Sarcosine Oxidase Enzyme Absorbance, MEAN of 7-11” value (Day 14, 5 mg/mL BSA only, no MIT (100 ppm MIT row)) of the same substance?
Answer: 1.42

Question: What about the “Sarcosine Oxidase Enzyme Absorbance, MEAN of 7-11” value (Day 14, 25 mg/mL BSA only, no MIT (50 ppm MIT row)) of the same substance?
Answer: 1.38

Question: What about the “Sarcosine Oxidase Enzyme Absorbance, MEAN of 7-11” value (Day 14, 25 mg/mL BSA only, no MIT (100 ppm MIT row)) of the same substance?
Answer: 1.40

Question: And the “Sarcosine Oxidase Enzyme Absorbance, MEAN of 7-11” value (Day 14, 50 mg/mL BSA only, no MIT (50 ppm MIT row))?
Answer: 1.37

Question: And the “Sarcosine Oxidase Enzyme Absorbance, MEAN of 7-11” value (Day 14, 50 mg/mL BSA only, no MIT (100 ppm MIT row))?
Answer: 1.44

Question: And the “% Bias” value (Day 14, 50 ppm MIT vs no MIT, 5 mg/mL BSA)?
Answer: −1.0%

Question: What about the “% Bias” value (Day 14, 50 ppm MIT vs no MIT, 25 mg/mL BSA) of the same substance?
Answer: −0.2%

Question: What about the “% Bias” value (Day 14, 50 ppm MIT vs no MIT, 50 mg/mL BSA) of the same substance?
Answer: 1.5%

Question: What about the “Sarcosine Oxidase Enzyme Absorbance, MEAN of 1-5” value [16] of the same substance?
Answer: 1.37

Question: And the “Sarcosine Oxidase Enzyme Absorbance, solutions 1-5” value [16]?
Answer: 1.413 and 1.372 and 1.41 and 1.423 and 1.437

Question: What about the “Sarcosine Oxidase Enzyme Absorbance, MEAN of 1-5” value [17] of the same substance?
Answer: 1.38

Question: What about the “Sarcosine Oxidase Enzyme Absorbance, solutions 1-5” value [17] of the same substance?
Answer: 1.413 and 1.41 and 1.422 and 1.427

Question: What about the “Sarcosine Oxidase Enzyme Absorbance, MEAN of 1-5” value [18] of the same substance?
Answer: 1.39

Question: What about the “Sarcosine Oxidase Enzyme Absorbance, solutions 1-5” value [18] of the same substance?
Answer: 1.434 and 1.444 and 1.427 and 1.431 and 1.432

Question: And the “% Bias” value (Day 14, 100 ppm MIT vs no MIT, 5 mg/mL BSA)?
Answer: 0.3%

Question: And the “% Bias” value (Day 14, 100 ppm MIT vs no MIT, 25 mg/mL BSA)?
Answer: −0.2%

Question: And the “% Bias” value (Day 14, 100 ppm MIT vs no MIT, 50 mg/mL BSA)?
Answer: −0.8%

Reference: US11339419B2, “Scavenger protein(s) for improved preservation of analyte detection sensor(s) and method(s) of use thereof” (Siemens Healthcare Diagnostics Inc., priority 2017, dated 2022)
